In patent US5183821A, “Method for treating leukemias using N-(2-dimethylaminoethyl)-3-amino-1,8-naphthalimide for treating leukemias and solid tumors” (priority 1991, dated 1993):
“Also recorded” adds a separate entry of the source.

Assays:
L-1210 Lymphoid Leukemia [1] = test: NCI screen, L-1210 Lymphoid Leukemia, intraperitoneal (summary); assay type: in vivo, Mouse; conditions: for dosage range over which activity was observed: i.p. L1210, ILS≥25%; for Table II evaluation: full wrapped cell: Activity substantially greater than the minimal
Description: (§1) The activity of the compound has been evaluated by experiments carried out under the auspices of the Division of Cancer Treatment, National Cancer Institute, employing techniques considered to be reliable indicators of chemotherapeutic utility in the treatment of forms of cancer in human patients. The details of the methodology employed in the reported experiments may be determined with reference to established NCI screening methods.
(§2) In the experiments conducted by the NCI, evaluation of activity is made on the basis of appropriate parameters, such as median survival time (MST) or change in average tumor diameter (CATD)in ocular micrometer units (OMU).

Colon 38 = test: NCI screen, Colon 38, subcutaneous (summary); assay type: in vivo, Mouse; conditions: for Antitumor activity in words: colon 38
Description: as §1, §2

[2] = assay type: physicochemical
Description: (§3) Stability: The reconstituted solution is stable for 14 days at room temperature. When further diluted 200-fold with normal saline the drug remains stable for 14 days at both room and refrigeration temperatures. The reconstituted solution is not stable when further diluted with 5% dextrose in water so this vehicle will not be used for infusions of the drug. Storage: The intact vials should be stored under refrigeration.
as §3, with “saline the drugs remains stable” for “saline the drug remains stable”

[3] = design: species or system human
Description: Further studies were done using heparinized plasma (two additional human donors) and with EDTA plasma (one donor). […] Human EDTA plasma was compatible with drug at a 1:32 drug/plasma ratio.

L-1210 Lymphoid leukemia [4] = test: Experiment 1: L-1210 i.p., 10^4 cells, acid diluted with saline, male; assay type: in vivo, Mouse CD2 F1 (CDF1)
Description: (§4) Host: Mouse CD2 F1 (CDF1)
(§5) Tumor: L-1210 Lymphoid leukemia
Inoculum Site: intraperitoneal
Vehicle: Acid Diluted with saline
(§6) Treatment schedule (relative to tumor inoculation day): daily on days 1-9
(§7) Day of evaluation (relative to tumor inoculation day): 30
(§8) Parameter: Median survival time (MST) in days
(§9) NCI minimal activity criteria: Percent T/C≥125
(§10) Percent T/C: Ratio of test (T) evaluation to control (C) evaluation expressed as a percentage

L-1210 Lymphoid leukemia [5] = test: Experiment 4: L-1210 s.c., 10^5 cells, acid diluted with saline, male; assay type: in vivo, Mouse CD2 F1 (CDF1)
Description: as §4, §5
(§11) Inoculum Site: Subcutaneous
Vehicle: acid diluted with saline
as §6, §7, §8, §9, §10

L-1210 Lymphoid leukemia [6] = test: Experiment 8: L-1210 s.c., 10^6 cells, acid diluted with saline, female; assay type: in vivo, Mouse CD2 F (CDF1)
Description: as §5, §11
(§12) Vehicle: Acid diluted with saline
Treatment schedule (relative to tumor inoculation day) daily on days 1-9
as §7, §8, §9, §10

B16 Melanocarcinoma = test: Experiment 19: B16 i.p., acid diluted with saline, female; assay type: in vivo, Mouse B6 D2 F1
Description: Tumor: B16 Melanocarcinoma
Inoculum Site: Intraperitoneal
Tissue: Homogenate (or brei), tumor
as §12
Treatment schedule: (relative to tumor inoculation day): daily on days 1-9
Day of evaluation (relative to tumor inoculation day): 60
as §8, §9, §10

[7] = Five daily dose (X5) mouse range-finding and lethality study; assay type: in vivo, CD2 F1 mice; conditions: mouse, in vivo, iv
Experimental: (§13) A preclinical toxicology study of benzisoquinolinedione (NSC-308847) was done at Springborn Institute for Bioresearch, Inc. using CD2 F1 mice, Fischer 344 rats and beagle dogs. Animals were injected intravenously on a single dose (X1) or five daily dose (X5) regimen. Bulk drug was titrated with 0.5N HCl to form a salt solution of benzisoquinolinedione at a pH of 5.0-6.5. Sterile 0.9% saline was used for diluting the dosing solutions and was used for the vehicle control animals.
(§14) The deaths generally were preceded by rough hair coat, decreased activity, hunched posture and dehydration. […] Males and females were similarily affected on both schedules.
(§15) Defined Doses for the Five Daily Dose Mouse Lethality

CD2 F1 mice = test: as above; assay type: in vivo
Experimental: as §13, §14, §15

[8] = X5, listed as benzisoquinolinedione

CN(C)CCN1C(=O)c2cccc3cc(N)cc(c23)C1=O [Example 9, 1H-Benz[de]isoquinoline-1,3(2H)-dione, 5-amino-2-[2-(dimethylamino)ethyl]]
dosage range over which activity was observed (L-1210 Lymphoid Leukemia [1]; listed as BIDA): two-fold dosing range
dosage range over which activity was observed (L-1210 Lymphoid Leukemia [1]; listed as the compound): two-fold dosage range
mean optimal increased life span (ILS) (L-1210 Lymphoid Leukemia [1]; ip, 16 mg/kg): 96%
optimal increased life spans (ILS) (L-1210 Lymphoid Leukemia [1]; ip, 16 mg/kg): 75-117%
Table II evaluation (L-1210 Lymphoid Leukemia [1]; mean survival time, 12 tests): Activity
Table II evaluation (L-1210 Lymphoid Leukemia [1]; median survival time, 21 tests): Activity
activity by other routes (L-1210 Lymphoid Leukemia [1]; p.o. or I.V.): is retained when given p.o. or I.V.
ILS (L-1210 Lymphoid Leukemia [1]; solution in 0.1 N HCl diluted with saline): 117%
T/C, growth of s.c. implanted colon 38 tumor (Colon 38; 64 mg/kg i.p.): 17%
inhibition at 64 mg/kg (Colon 38; Mus musculus, 64 mg/kg i.p., read-out: inhibition of growth of s.c. implanted colon 38 tumor): 83%
Antitumor activity in words (Colon 38; listed as BIDA): not active
Antitumor activity in words (Colon 38; listed as the compound): at least a reproducible minimal activity; also recorded: active
Table II evaluation (Colon 38; median tumor weight, 25 tests, full wrapped cell: Reproducible minimal activity): Reproducible minimal
stability of reconstituted solution [2]: 14 days
stability, diluted 200-fold with normal saline [2]: 14 days
stability, diluted with 5% dextrose in water [2]: not stable
blood compatibility [3]: compatible
Median survival time (MST) (L-1210 Lymphoid leukemia [4]; 2.00 mg/kg i.p.): 9.9 days
Percent T/C (L-1210 Lymphoid leukemia [4]; 2.00 mg/kg i.p.): 107%
Median survival time (MST) (L-1210 Lymphoid leukemia [4]; 4.00 mg/kg i.p.): 10.4 days
Percent T/C (L-1210 Lymphoid leukemia [4]; 4.00 mg/kg i.p.): 113%
Median survival time (MST) (L-1210 Lymphoid leukemia [4]; 8.00 mg/kg i.p.): 12.3 days
Percent T/C (L-1210 Lymphoid leukemia [4]; 8.00 mg/kg i.p.): 133%
Median survival time (MST) (L-1210 Lymphoid leukemia [4]; 16.00 mg/kg i.p.): 20.0 days
Percent T/C (L-1210 Lymphoid leukemia [4]; 16.00 mg/kg i.p.): 217%
Median survival time (MST) (L-1210 Lymphoid leukemia [4]; 32.00 mg/kg i.p.): 8.8 days
Percent T/C (L-1210 Lymphoid leukemia [4]; 32.00 mg/kg i.p.): 95%
Median survival time (MST) (L-1210 Lymphoid leukemia [5]; 0.00 mg/kg [sic] i.p.): 8.9 days
Percent T/C (L-1210 Lymphoid leukemia [5]; 0.00 mg/kg [sic] i.p.): 101%
Median survival time (MST) (L-1210 Lymphoid leukemia [5]; 5.00 mg/kg i.p.): 10.4 days
Percent T/C (L-1210 Lymphoid leukemia [5]; 5.00 mg/kg i.p.): 118%
Median survival time (MST) (L-1210 Lymphoid leukemia [5]; 7.00 mg/kg i.p.): 10.7 days
Percent T/C (L-1210 Lymphoid leukemia [5]; 7.00 mg/kg i.p.): 121%
Median survival time (MST) (L-1210 Lymphoid leukemia [5]; 10.00 mg/kg i.p.): 12.0 days
Percent T/C (L-1210 Lymphoid leukemia [5]; 10.00 mg/kg i.p.): 136%
Median survival time (MST) (L-1210 Lymphoid leukemia [5]; 16.00 mg/kg i.p.): 15.3 days
Percent T/C (L-1210 Lymphoid leukemia [5]; 16.00 mg/kg i.p.): 173%
Median survival time (MST) (L-1210 Lymphoid leukemia [5]; 24.00 mg/kg i.p.): 11.0 days
Percent T/C (L-1210 Lymphoid leukemia [5]; 24.00 mg/kg i.p.): 125%
Median survival time (MST) (L-1210 Lymphoid leukemia [6]; 5.00 mg/kg i.p.): 9.0 days
Percent T/C (L-1210 Lymphoid leukemia [6]; 5.00 mg/kg i.p.): 105%
Median survival time (MST) (L-1210 Lymphoid leukemia [6]; 7.00 mg/kg i.p.): 9.8 days
Percent T/C (L-1210 Lymphoid leukemia [6]; 7.00 mg/kg i.p.): 110%
Median survival time (MST) (L-1210 Lymphoid leukemia [6]; 10.00 mg/kg i.p.): 10.7 days
Percent T/C (L-1210 Lymphoid leukemia [6]; 10.00 mg/kg i.p.): 125%
Median survival time (MST) (L-1210 Lymphoid leukemia [6]; 16.00 mg/kg i.p.): 12.3 days
Percent T/C (L-1210 Lymphoid leukemia [6]; 16.00 mg/kg i.p.): 144%
Median survival time (MST) (L-1210 Lymphoid leukemia [6]; 24.00 mg/kg i.p.): 31.3 days
Percent T/C (L-1210 Lymphoid leukemia [6]; 24.00 mg/kg i.p.): 132%
Median survival time (MST) (B16 Melanocarcinoma; 1.00 mg/kg i.p.): 19.8 days
Percent T/C (B16 Melanocarcinoma; 1.00 mg/kg i.p.): 99%
Median survival time (MST) (B16 Melanocarcinoma; 2.00 mg/kg i.p.): 21.9 days
Percent T/C (B16 Melanocarcinoma; 2.00 mg/kg i.p.): 110%
Median survival time (MST) (B16 Melanocarcinoma; 4.00 mg/kg i.p.): 22.8 days
Percent T/C (B16 Melanocarcinoma; 4.00 mg/kg i.p.): 114%
Median survival time (MST) (B16 Melanocarcinoma; 8.00 mg/kg i.p.): 24.3 days
Percent T/C (B16 Melanocarcinoma; 8.00 mg/kg i.p.): 122%
Median survival time (MST) (B16 Melanocarcinoma; 16.00 mg/kg i.p.): 31.0 days
Percent T/C (B16 Melanocarcinoma; 16.00 mg/kg i.p.): 155%
Median survival time (MST) (B16 Melanocarcinoma; 32.00 mg/kg i.p.): 6.8 days
LD50 ([7]; combined sexes): 28.4 mg/kg
LD50 ([7]; male): 28.8 mg/kg
body weight, mice (CD2 F1 mice; X5): Dose-related weight loss was mild to severe initially
time of mortality, mice (CD2 F1 mice; [8]): between days 1 and 10; also recorded: between days 6 and 10
toxic signs, mice (CD2 F1 mice; [8]): labored breathing, exophthalmus, hyperextension of limbs, loss of locomotor ability, struggling, rough hair coat, huched posture, dehydration, increased irritability, decreased activity, swollen and necrotic tails, squinted eyes, prostration and moribundity; also recorded: ataxia and swollen faces with closed eyes and ocular discharge; also recorded: tail lesions which persisted to termination on day 33
LD10 (CD2 F1 mice; combined sexes): 24.9 mg/kg/day
LD10, second dose column (CD2 F1 mice; combined sexes): 74.7
LD90 (CD2 F1 mice; combined sexes): 32.5 mg/kg/day
LD90, second dose column (CD2 F1 mice; combined sexes): 97.5
Slope (lethality) (CD2 F1 mice; combined sexes): 22.3
LD10 (CD2 F1 mice; male): 24.3 mg/kg/day
LD10, second dose column (CD2 F1 mice; male): 72.9
LD90 (CD2 F1 mice; male): 34.2 mg/kg/day
LD90, second dose column (CD2 F1 mice; male): 102.6
Slope (lethality) (CD2 F1 mice; male): 17.2
